Assay results reported in article PMC12112586, “Inhibitory Effect of Fluralaner on GABA Receptor Subunit RDL of Bactrocera dorsalis” (Insects, 2025).

Columns and labels:
[1] = molecular target: T1, BdRDL (GABA receptor subunit RDL) (Bactrocera dorsalis, UniProt A0ABM3JZQ9); assay: two-electrode voltage clamp in Xenopus oocytes, inhibition of GABA (EC50)-induced currents; format: cell-based
T1 construct: gene LOC105225059; full-length ORF, 596 amino acids (GenBank XM_049458762), homomeric receptor expressed in Xenopus oocytes
T1 sequence (A0ABM3JZQ9 1-596): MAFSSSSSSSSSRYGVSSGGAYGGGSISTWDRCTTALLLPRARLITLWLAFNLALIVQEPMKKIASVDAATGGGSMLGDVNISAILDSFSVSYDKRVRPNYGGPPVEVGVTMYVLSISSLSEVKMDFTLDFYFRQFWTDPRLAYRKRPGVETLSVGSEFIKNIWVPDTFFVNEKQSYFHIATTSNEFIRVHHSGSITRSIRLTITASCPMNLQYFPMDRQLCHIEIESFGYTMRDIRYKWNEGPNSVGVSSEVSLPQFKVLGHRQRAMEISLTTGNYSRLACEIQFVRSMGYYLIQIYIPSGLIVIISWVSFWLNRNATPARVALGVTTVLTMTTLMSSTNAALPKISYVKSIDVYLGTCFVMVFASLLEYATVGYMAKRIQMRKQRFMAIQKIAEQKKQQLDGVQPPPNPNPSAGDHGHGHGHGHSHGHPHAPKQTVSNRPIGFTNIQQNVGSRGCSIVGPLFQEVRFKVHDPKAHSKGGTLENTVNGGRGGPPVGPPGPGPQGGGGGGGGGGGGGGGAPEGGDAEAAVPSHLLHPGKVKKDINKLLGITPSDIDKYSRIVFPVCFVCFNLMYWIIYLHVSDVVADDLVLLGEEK

[2] = molecular target: T1, BdRDL (GABA receptor subunit RDL); assay: two-electrode voltage clamp in Xenopus oocytes, agonist-induced currents; format: cell-based

Row | Compound | IC50 [1] [µM] | EC50 [2] [µM]
1 | Cc1cc(C2=NOC(c3cc(Cl)cc(Cl)c3)(C(F)(F)F)C2)ccc1C(=O)NCC(=O)NCC(F)(F)F (racemic) [fluralaner] | 0.15 | 
2 | NCCCC(=O)O [GABA] |  | 240
